{
  "source": "patent US20140030368A1",
  "about": "“COMPOSITION FOR PREVENTING OR TREATING A RESPIRATORY DISEASE CONTAINING A MIXED HERBAL EXTRACT OF CNIDIUM OFFICINALE ROOT AND POLYGONI CUSPIDATI ROOT” (WHANIN PHARMACEUTICAL CO., LTD., priority 2011, published 2014)",
  "format_in_all_cases": "in vivo, mice",
  "key": {"[1]": {"tested_on": "inflammatory cells in pulmonary bronchoalveolar lavage", "assay": "Inflammatory cells in pulmonary bronchoalveolar lavage, E. coli-EV-induced asthma/COPD model", "description": "Whether the extract of the present invention has the effect of inhibiting pulmonary bronchial inflammation in an E. coli-EV-induced asthma/chronic obstructive pulmonary disease model was evaluated.\nSpecifically, a mixture of 10 ng of E. coli-EV and PBS was intranasally administered a total of four times (days 0, 1, 2 and 7) into C57BL/6 male mice (6 weeks old; provided from the Animal Laboratory in Biotech Center, Pohang University of Science & Technology) to sensitize the mice. At 14, 15, 21 and 22 days from the first sensitization date, 10 ng of E. coli-EV was challenged into the nasal cavity to induce asthma and chronic obstructive pulmonary disease. In addition, at 14, 15, 21 and 22 days at which the challenge was performed, each of 1.0% CMC, 100, 200 and 400 mg/10 ml/kg of the extract of Example 2, 1 mg/10 ml/kg of the comparative drug dexamethason and 10 mg/10 ml/kg of the comparative drug montelukast was orally administered twice a day. At 48 hours after the final challenge, the mice were anesthetized by intraperitoneal administration of ketamine and xylazine, and the organ of the mice was exposed and a catheter was inserted therein. Then, the bronchoalveoli were laved with each of 0.8 and 0.7 ml of sterile phosphate buffered saline to obtain a bronchoalveolar lavage The bronchoalveolar lavage was centrifuged at 4° C. at 1000 rpm for 5 minutes, and the supernatant was removed. 2 ml of 10% FBS-IMDM (fetal bovine serum—Iscove's Modified Dulbecco's Medium) was added to the cells which were then counted. Then, the cells were cytospun, plated on a slide, and Diff-Quick stained. At least 300 inflammatory cells were observed by the staining method and classified into eosinophils, macrophages, neutrophils and lymphocytes, and the cell numbers of the groups treated with dexamethason, montelukast and the extract of Example 2 were compared with the ratios of inflammatory cells in the pulmonary bronchoalveolar lavages of the negative control group and the positive control group, thereby evaluating the inhibitory effects of the test materials against airway inflammation."}, "[2]": {"tested_on": "MIP-1α (macrophage inflammatory protein-1α)", "assay": "Inflammatory mediator in bronchoalveolar lavage, E. coli-EV-induced model (ELISA)", "description": "(§1) The expression patterns of the inflammatory mediators MCP-1 (monocyte chemoattractant protein-1) and MIP-1α (macrophage inflammatory protein-1α) in the bronchoalveolar lavage obtained in Test Example 8-1 were measured using an ELISA assay, and the results of the measurement are shown in Table 14 below."}, "[3]": {"tested_on": "MCP-1 (monocyte chemoattractant protein-1)", "assay": "Inflammatory mediator in bronchoalveolar lavage, E. coli-EV-induced model (ELISA)", "description": "as §1"}, "IFN-γ": {"tested_on": "IFN-γ", "assay": "T cell-derived cytokine from lung tissue, E. coli-EV-induced model (ELISA)", "description": "(§2) In order to examine whether the extract of the present invention has the effect of inhibiting T cell-derived cytokine isolated from the lung tissue of an E. coli-EV-derived asthma/chronic obstructive pulmonary disease model, the following test was performed.\n(§3) Specifically, the […] asthma/chronic obstructive pulmonary disease model was prepared by treatment with each of the extract of Example 2 and a comparative drug in the same manner as described in Test Example 8-1. At 6 hours after the final challenge, the mice were anesthetized by intraperitoneal injection with ketamine and xylazine, and lung tissue was obtained from the mice. The lung tissue was cut finely with a blade and incubated with 5 ml of 1× Trypsin-EDTA and 1000 units of chollagenase at 37 °C for 10 minutes. Then, the tissue was passed through a 100 μm mesh to collect only immune cells. To stimulate T cells among the collected cells, 1×10^5 cells and anti-CD28 (1 μg/ml) were added to a 96-well plate coated with anti-CD3 (1 μg/ml) and were incubated in an incubator at 37° C. for 12 hours. Next, the supernatant was collected, and the amounts of cytokines in the supernatant were measured using an ELISA assay."}, "IL-17": {"tested_on": "IL-17", "assay": "T cell-derived cytokine from lung tissue, E. coli-EV-induced model (ELISA)", "description": "as §2, §3"}, "[4]": {"tested_on": "invasion of inflammatory cells into lung tissue", "assay": "Invasion of inflammatory cells into lung tissue, LPS-induced asthma/COPD model (H&E score)", "conditions": "ovalbumin + LPS model", "description": "Then, the lung was isolated, embedded with paraffin, sectioned to a thickness of […], and stained with H&E (hematoxylin-eosin). The invasion of inflammatory cells into a portion surrounding the airway was measured (see FIG. 3), and the inflammations of the airway and the pulmonary parenchyma were compared and scored."}, "[5]": {"tested_on": "anti-ovalbumin-specific IgG1 antibody", "assay": "Antigen-specific antibody in serum, LPS-induced asthma/COPD model (ELISA)", "description": "In order to examine whether the extract of the present invention has the ability to produce an antigen-specific antibody in an LPS-induced asthma/chronic obstructive pulmonary disease model, the LPS-induced asthma/chronic obstructive pulmonary disease model was prepared by treatment with each of the extract of Example 2 and a comparative drug in the same manner as described in Test Example 7-1. At 48 hours after the final challenge, the mice were anesthetized by intraperitoneal injection with ketamine and xylazine. Then, blood was collected from the heart using a 1 ml syringe, and serum was separated from the blood by centrifugation. Then, an anti-ovalbumin-specific IgG1 antibody in the serum was measured according to an ELISA assay, and the results of the measurement are shown in Table 11 below."}, "[6]": {"tested_on": "IP-10 (interferon-gamma inducible protein-10)", "assay": "Inflammatory mediator in bronchoalveolar lavage, LPS-induced asthma/COPD model (ELISA)", "conditions": "ovalbumin + LPS model", "description": "In order to examine whether the extract of the present invention has the effect of inhibiting inflammatory mediators in a bronchoalveolar lavage in an LPS-induced asthma/chronic obstructive pulmonary disease model, the expression pattern of the inflammatory mediator IP-10 (interferon-gamma inducible protein-10) in the bronchoalveolar lavage obtained in Test Example 7-2 was measured using an ELISA assay, and the results of the measurement are shown in Table 10 below."}},
  "data": [
    {"compound": "C[C@@H]1C[C@H]2[C@@H]3CCC4=CC(=O)C=C[C@]4(C)[C@@]3(F)[C@@H](O)C[C@]2(C)[C@@]1(O)C(=O)CO", "note": "[Dexamethason, dexamethason]", "values": [
      {"measurement": "Inhibition rate(%) Eosinophils", "setting": "[1]; 1 mg/kg b.i.d.", "result": 1.1, "unit": "%"},
      {"measurement": "Inhibition rate(%) Macrophages", "setting": "[1]; 1 mg/kg b.i.d.", "result": 24.7, "unit": "%"},
      {"measurement": "Inhibition rate(%) Total cells", "setting": "[1]; 1 mg/kg b.i.d.", "result": 9.2, "unit": "%"},
      {"measurement": "Inhibition rate(%) MIP-1α", "setting": "[2]; 1 mg/kg b.i.d.", "result": 8.3, "unit": "%"},
      {"measurement": "Inhibition rate(%) MCP-1", "setting": "[3]; 1 mg/kg b.i.d.", "result": 1.2, "unit": "%"},
      {"measurement": "IFN-γ inhibition rate (%)", "setting": "IFN-γ; 1 mg/kg b.i.d.", "result": 1.13, "unit": "%"},
      {"measurement": "IL-17 inhibition rate (%)", "setting": "IL-17; 1 mg/kg b.i.d.", "result": 1.12, "unit": "%"},
      {"measurement": "Inhibition rate (%) of invasion of inflammatory cells into lung tissue", "setting": "[4]; 1 mg/kg b.i.d.", "result": 28.87, "unit": "%"},
      {"measurement": "IGg1 in serum", "setting": "[5]; 1 mg/kg b.i.d.", "result": 28.94},
      {"measurement": "IGg1 in serum, Inhibition rate (%)", "setting": "[5]; 1 mg/kg b.i.d.", "result": 57.35, "unit": "%"},
      {"measurement": "IP-10 inhibition rate (%)", "setting": "[6]; 1 mg/kg b.i.d.", "result": 4.09, "unit": "%"}
    ]},
    {"compound": "CC(C)(O)c1ccccc1CC[C@@H](SCC1(CC(=O)O)CC1)c1cccc(/C=C/c2ccc3ccc(Cl)cc3n2)c1", "note": "[montelukast]", "values": [
      {"measurement": "Inhibition rate(%) Eosinophils", "setting": "[1]; 10 mg/kg b.i.d.", "result": 15.4, "unit": "%"},
      {"measurement": "Inhibition rate(%) Macrophages", "setting": "[1]; 10 mg/kg b.i.d.", "result": 1.3, "unit": "%"},
      {"measurement": "Inhibition rate(%) Total cells", "setting": "[1]; 10 mg/kg b.i.d.", "result": 1.2, "unit": "%"},
      {"measurement": "Inhibition rate(%) MIP-1α", "setting": "[2]; 10 mg/kg b.i.d.", "result": 4.2, "unit": "%"},
      {"measurement": "Inhibition rate(%) MCP-1", "setting": "[3]; 10 mg/kg b.i.d.", "result": 11.5, "unit": "%"},
      {"measurement": "IFN-γ inhibition rate (%)", "setting": "IFN-γ; 10 mg/kg b.i.d.", "result": 0.23, "unit": "%"},
      {"measurement": "IL-17 inhibition rate (%)", "setting": "IL-17; 10 mg/kg b.i.d.", "result": 0.22, "unit": "%"},
      {"measurement": "Inhibition rate (%) of invasion of inflammatory cells into lung tissue", "setting": "[4]; 10 mg/kg b.i.d.", "result": 8.25, "unit": "%"},
      {"measurement": "IGg1 in serum", "setting": "[5]; 10 mg/kg b.i.d.", "result": 44.84},
      {"measurement": "IGg1 in serum, Inhibition rate (%)", "setting": "[5]; 10 mg/kg b.i.d.", "result": 33.91, "unit": "%"},
      {"measurement": "IP-10 inhibition rate (%)", "setting": "[6]; 10 mg/kg b.i.d.", "result": 1.80, "unit": "%"}
    ]}
  ]
}
